In US20220151230A1, “SPECIFICALLY SUBSTITUTED 3-(2-HALOGEN-6-ALKYL-4-PROPINYLPHENYL)-3-PYRROLIN-2-ONES AND TO THE USE THEREOF AS HERBICIDES” (Bayer Aktiengesellschaft, priority 2019, published 2022):

Assays:
Details in all cases: one-leaf stage, 80 g/ha, assessed visually after about 3 weeks vs untreated controls, 100% = plants have died
DIGSA = test: Post-emergence herbicidal effect against DIGSA; type: in vivo, Digitaria sanguinalis
Outline: (§1)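 Weeds were grown in sandy loam in a greenhouse and treated at the one-leaf stage, 2 to 3 weeks after sowing. WP or EC formulations were sprayed onto green parts at 600 to 800 l/ha water with 0.2% wetting agent. Visual % action versus untreated controls was scored after about 3 weeks.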

LOLRI = test: Post-emergence herbicidal effect against LOLRI; type: in vivo, Lolium rigidum
Outline: as §1

ALOMY = test: Post-emergence herbicidal effect against ALOMY; type: in vivo, Alopecurus myosuroides
Outline: as §1

SETVI = test: Post-emergence herbicidal effect against SETVI; type: in vivo, Setaria viridis
Outline: as §1

HORMU = test: Post-emergence herbicidal effect against HORMU; type: in vivo, Hordeum murinum
Procedure: Seeds of monocotyledonous and dicotyledonous weed and crop plants are laid out in sandy loam soil in wood-fiber pots, covered with soil and cultivated in a greenhouse under good growth conditions. 2 to 3 weeks after sowing, the test plants are treated at the one-leaf stage. The compounds of the invention, formulated in the form of wettable powders (WP) or as emulsion concentrates (EC), are then sprayed onto the green parts of the plants as aqueous suspension or emulsion at a water application rate equating to 600 to 800 l/ha with addition of 0.2% wetting agent. After the test plants have been left to stand in the greenhouse under optimal growth conditions for about 3 weeks, the action of the preparations is assessed visually in comparison to untreated controls (herbicidal action in percent (%): 100% activity=the plants have died, 0% activity=like control plants).

ECHCG = test: Post-emergence herbicidal effect against ECHCG; type: in vivo, Echinochloa crus-galli
Outline: as §1

AVEFA = test: Post-emergence herbicidal effect against AVEFA; type: in vivo, Avena fatua
Outline: as §1

SMILES	Post-emergence action [%] against DIGSA (DIGSA) [%]	Post-emergence action [%] against LOLRI (LOLRI) [%]	Post-emergence action [%] against ALOMY (ALOMY) [%]	Post-emergence action [%] against SETVI (SETVI) [%]	Post-emergence action [%] against HORMU (HORMU) [%]	Post-emergence action [%] against ECHCG (ECHCG) [%]	Post-emergence action [%] against AVEFA (AVEFA) [%]
CC#Cc1cc(C)c(C2=C(O)C3(CCCC(OCCC)C3)NC2=O)c(Cl)c1 (stereo not drawn) [Example D1, 3-[2-Chloro-6-methyl-4-(prop-1-yn-1-yl)phenyl]-4-hydroxy-7-propoxy-1-azaspiro[4.5]dec-3-en-2-one]	100	100	100	100	100	100	100
CC#Cc1cc(C)c(C2=C(O)C3(CCC(CC)CC3)NC2=O)c(Cl)c1 (stereo not drawn) [Example E1]	100	100	100	100	100	100	100
C=CCOC1CCC2(CC1)NC(=O)C(c1c(C)cc(C#CC)cc1Cl)=C2O (stereo not drawn) [Example E7]	100	100	100	100	90	100	80
CC#Cc1cc(C)c(C2=C(O)C3(CCC(OCC)CC3)NC2=O)c(Cl)c1 (stereo not drawn) [Example E10]	100	100	100	100	100	100	100
CC#Cc1cc(C)c(C2=C(O)C3(CCC(OC(C)C)CC3)NC2=O)c(Cl)c1 (stereo not drawn) [Example E13]	100	100	100	100	100	100	100
CC#Cc1cc(C)c(C2=C(O)C3(CCC(OC)CC3)NC2=O)c(Cl)c1 (stereo not drawn) [Example E19]	100	100	100	100	100	100	100
CC#Cc1cc(C)c(C2=C(OC(=O)OC)C3(CCC(OC)CC3)NC2=O)c(Cl)c1 (stereo not drawn) [Example P10]	100	100	100	100	100	100	100
CC#Cc1cc(C)c(C2=C(OC(=O)OCC)C3(CCC(OC)CC3)NC2=O)c(Cl)c1 (stereo not drawn) [Example P11]	100	100	100	100	90	100	100
CC#Cc1cc(C)c(C2=C(OC(=O)C(C)C)C3(CCC(OC)CC3)NC2=O)c(Cl)c1 (stereo not drawn) [Example P12]	100	100	100	100	100	100	100
CC#Cc1cc(C)c(C2=C(OC(=O)OCC)C3(CCC(OC(C)C)CC3)NC2=O)c(Cl)c1 (stereo not drawn) [Example P15]	100	100	100	100	90	100	100
CC#Cc1cc(C)c(C2=C(OC(=O)OCC)C3(CCC(OCC)CC3)NC2=O)c(Cl)c1 (stereo not drawn) [Example P16]	100	100	100	100	100	100	100
CC#Cc1cc(C)c(C2=C(OC(=O)OCC)C3(CCCC(OCCC)C3)NC2=O)c(Cl)c1 (stereo not drawn) [Example Q5]	100	100	100	100	100	100	100
